Results as given in US11186577B2, “Vasopressin receptor antagonists and products and methods related thereto” (BlackThorn Therapeutics, Inc., priority 2017, dated 2021).
Where two headings read alike, the source gives them in different places.

How the values were obtained:
[1] = system: wild-type (WT) MDCK cells; assay: MDR1-MDCK effective efflux assay (Transwell, 10 μM, 1 hour), wild-type MDCK cells; format: in vitro ADME; conditions: for WT ER: MDCK; for Papp AB WT: wild-type MDCK cells, apical to basolateral (A>B), 10 μM, 1 hour
Procedure: (§1) The MDR1-MDCK effective efflux assay was performed as described in the BioFocus Standard Operating Procedure, ADME-SOP-56. Both wild-type (WT) and MDR1-MDCK cells (Solvo Biotechnology) were seeded onto 24-well Transwell plates at 2.35×10^5 cells per well and used in confluent monolayers after a 3 day culture at 37° C. under 5% CO2. For both cell types, test and control compounds (propranolol, vinblastine) were added (10 μM, 0.1% DMSO final, n=2) to donor compartments of the Transwell plate assembly in assay buffer (Hanks balanced salt solution supplemented with 25 mM HEPES, adjusted to pH 7.4) for both apical to basolateral (A>B) and basolateral to apical (B>A) measurements. Incubations were performed at 37° C., with samples removed from both donor and acceptor chambers at T=0 and 1 hour and compound analysed by mass spectrometry (LC-MS/MS) including an analytical internal standard.
(§2) Where V is the volume of each Transwell compartment (apical 125 basolateral 600 and concentrations are the relative MS responses for compound (normalized to internal standard) in the donor chamber before incubation and acceptor chamber at the end of the incubation. Area=area of cells exposed for drug transfer (0.33 cm2).
(§3) Efflux ratios (Papp B>A/Papp A>B) were calculated for each compound from the mean Papp values in each direction for both wild-type and MDR1-MDCK cells.
(§4) In order to confirm the involvement of MDR1 in any efflux seen, an “effective efflux ratio” (EER) was calculated by comparing compound efflux ratios (ER) in the two cell types, i.e. EER=ER(MDR1−MDCK)/ER(wild-type MDCK)
(§5) This ratio illustrates the effect of the over-expressed MDR1 normalised for the background movement of compound through the wild-type cells.
(§6) Lucifer Yellow (LY) was added to the apical buffer in all wells to assess viability of the cell layer. Compound recovery from the wells was determined from MS responses (normalized to internal standard) in donor and acceptor chambers at the end of incubation compared to response in the donor chamber pre-incubation.

[2] = as above; format: in vitro ADME; conditions: dog, MDCK
Procedure: as §1, §2, §3, §4, §5, §6

MDR1 (P-glycoprotein) = assay: MDR1-MDCK effective efflux assay (Transwell, 10 μM, 1 hour), MDR1-MDCK cells; format: in vitro ADME; conditions: dog
Procedure: as §1, §2, §3, §4, §5, §6

MDR1-MDCK cells = assay: as above; format: in vitro ADME; conditions: for MDR1 EER / MDR1 ER: MDCK-MDR1; for Papp AB MDR1: MDR1-MDCK cells, apical to basolateral (A>B), 10 μM, 1 hour
Procedure: as §1, §2, §3, §4, §5, §6

[3] = biological target: human Arginine Vasopressin Receptor 1a (AVPR1a) (Homo sapiens (Human), UniProt P37288); assay: Vasopressin V1A receptor antagonist assay (AVP-evoked calcium, FLIPR, CHO-AVPR1a cells); format: cell-based; conditions: read-out: V1a IC50
human Arginine Vasopressin Receptor 1a (AVPR1a), sequence (P37288 whole entry): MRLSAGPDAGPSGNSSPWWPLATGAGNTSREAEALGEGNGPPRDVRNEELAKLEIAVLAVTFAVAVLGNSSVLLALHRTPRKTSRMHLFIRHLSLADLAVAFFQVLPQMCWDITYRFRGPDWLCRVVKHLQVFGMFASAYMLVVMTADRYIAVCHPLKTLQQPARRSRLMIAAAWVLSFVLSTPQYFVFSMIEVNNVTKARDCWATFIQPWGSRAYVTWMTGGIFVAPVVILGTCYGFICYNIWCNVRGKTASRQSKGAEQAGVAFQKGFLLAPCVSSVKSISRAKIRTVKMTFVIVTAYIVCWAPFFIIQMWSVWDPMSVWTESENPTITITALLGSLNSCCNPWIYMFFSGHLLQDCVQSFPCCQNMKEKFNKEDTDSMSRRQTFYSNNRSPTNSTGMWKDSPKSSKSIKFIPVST
In short: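 CHO cells expressing human AVPR1a, Calcium-6 dye loaded 60-90 min, preincubated with compound 15 min at 37° C., then challenged with AVP at its daily-determined EC80. FLIPR fluorescence; 10-point 1:3 series from 3 μM, duplicates.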

[4] = biological target: human Oxytocin Receptor (hOTR) (Homo sapiens (Human), UniProt P30559); assay: Oxytocin receptor antagonist assay (oxytocin-evoked calcium, FLIPR, CHEM-1-hOTR cells); format: cell-based; conditions: read-out: OT IC50
human Oxytocin Receptor (hOTR), sequence (P30559 whole entry): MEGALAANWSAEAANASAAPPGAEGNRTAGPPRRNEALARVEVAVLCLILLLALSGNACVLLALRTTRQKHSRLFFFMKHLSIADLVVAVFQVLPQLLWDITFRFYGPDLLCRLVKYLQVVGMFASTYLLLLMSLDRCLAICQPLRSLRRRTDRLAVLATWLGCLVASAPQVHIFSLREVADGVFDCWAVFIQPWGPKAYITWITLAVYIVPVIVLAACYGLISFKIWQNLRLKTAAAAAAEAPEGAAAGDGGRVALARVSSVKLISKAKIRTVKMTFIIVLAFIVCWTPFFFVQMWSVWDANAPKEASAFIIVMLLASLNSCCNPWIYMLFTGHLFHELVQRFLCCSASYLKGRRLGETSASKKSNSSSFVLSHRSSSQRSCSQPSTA
Procedure: This assay was performed in CHEM-1 cells expressing the human Oxytocin Receptor (hOTR) to determine the inhibitory effect of the compounds of the invention on the human Oxytocin receptor. Oxytocin evokes an increase in intracellular calcium in CHEM-1-hOTR cells which is measured in a fluorescence assay on the FLIPR^TETRA using calcium sensitive dyes. Test compounds were assessed for their ability to affect the magnitude of the response to oxytocin, with antagonists showing a concentration-dependent reduction in the oxytocin-mediated fluorescence.
CHEM-1-hOTR ready was used to assay frozen cells (Eurofins #HTS090RTA) which are supplied with a proprietary Media Component.
Cells were thawed in a 37° C. water bath and diluted with the supplied Media Component to a final volume of 10 ml. The cell suspension was centrifuged at 1000 rpm for 3 min at room temperature and the supernatant was discarded. The cell pellet was resuspended in Media Component (10.5 ml) and the cells (25 μL) were dispensed into a poly-D-lysine coated black, clear bottomed, 384-well plate. The plates were incubated overnight at 37° C., 5% CO2.
At the start of each assay day the potency of oxytocin was assessed and an EC80 concentration was determined for subsequent compound profiling. Assays were performed using a two-step addition protocol on the FLIPR^TETRA; first addition of 5 μl of control or test compound at 10× final in assay buffer with 15 min incubation at 37° C., 5% CO2 followed by 10 μl of oxytocin at 6× final concentration in assay buffer. Changes in fluorescence were monitored for 3 min after both additions on the FLIPR^TETRA using 470-495 nm excitation and 515-575 nm emission wavelengths. The assay buffer consisted of HBSS (+Ca/+Mg) supplemented with 20 mM HEPES, and for the preparation of the oxytocin agonist only, 0.1% w/v bovine serum albumin. The assay was initiated by the removal of growth media from the cells and replaced with 45 μl of Calcium-6 dye (Molecular Devices) prepared at 1× in assay buffer. Cells were loaded with dye for 60-90 min at 37° C., 5% CO2 before initiation of the FLIPR^TETRA protocol. […] For compound profiling, test compounds were first serially diluted in DMSO (10-point curve, 1:3 dilutions) then diluted 33.3-fold in assay buffer prior to addition to the dye loaded cells on the FLIPR^TETRA. At the end of the incubation period 10 μl of oxytocin in assay buffer containing 0.1% BSA was added at the previously determined EC80 concentration.
In-plate controls for the assay include a L-368,899 concentration-response curve as the reference OTR antagonist and an oxytocin concentration-response curve to confirm the reproducibility of the EC80 used for the compound challenge.

[5] = MDCK-MDR1, pH 7.4, Papp AB MDR1
[6] = pH 7.4, wild-type MDCK cells, apical to basolateral (A>B), 10 μM, 1 hour, read-out: Papp AB WT
[7] = MDCK-MDR1, pH 7.4, MDR1-MDCK cells, apical to basolateral (A>B), 10 μM, 1 hour, read-out: Papp AB MDR1

SMILES	WT ER [1]	Papp A→B at 1 h, 10 μM ([2]; pH 7.4, Papp AB WT) [×10⁻⁶ cm/s]	Papp A→B at 1 h, 10 μM (MDR1 (P-glycoprotein); [5]) [×10⁻⁶ cm/s]	MDR1 EER (MDR1-MDCK cells)	MDR1 ER (MDR1-MDCK cells)	IC50 [3] [nM]	Papp AB WT [1]	Papp AB MDR1 (MDR1-MDCK cells)	Papp A→B at 1 h, 10 μM [2, 6] [×10⁻⁶ cm/s]	IC50 [4] [nM]	Papp A→B at 1 h, 10 μM (MDR1 (P-glycoprotein); [7]) [×10⁻⁶ cm/s]
CC1c2nnc(C3CC4(C3)CN(c3ccc(F)cn3)C4)n2-c2ccc(Cl)cc2CN1C(=O)OC1CCC1 (stereo not drawn) [compound 195]	+++	10 to 20	> 20	++++	+++						
CC(C)OC(=O)N1Cc2cc(Cl)ccc2-n2c(C3CC4(C3)CN(c3ccncn3)C4)nnc2C1C (stereo not drawn) [compound 187]	++++	> 20	> 20		++	100 to 500					
CC1c2nnc(C3CC4(C3)CN(c3ccc(F)cn3)C4)n2-c2ccc(Cl)cc2CN1C(=O)C(F)F (stereo not drawn) [compound 176]	++++	> 20	7 to 10	+	+	< 100					
CN1Cc2cc(Cl)ccc2-n2c(nnc2C2CC3(C2)CN(C(=O)C2(F)CC2)C3)C1 [compound 36]	++	10 to 20	< 7	+	+	< 100					
COC(=O)N1Cc2cc(Cl)ccc2-n2c(nnc2C2CC3(C2)CN(c2cccc(C)n2)C3)C1 [compound 115]	+++	> 20	10 to 20	+	+	< 100					
CC1c2nnc(C3CC4(C3)CN(c3ccc(F)cn3)C4)n2-c2ccc(Cl)cc2CN1C(=O)OC(CF)CF (stereo not drawn) [compound 203]	+++	> 20	10 to 20	+++	++						
COC(=O)N1Cc2cc(Cl)ccc2-n2c(C3CC4(C3)CN(c3ccncn3)C4)nnc2C1C (single isomer, unassigned) [Cpd 184A]						< 100	++++ ((++++) denotes >20 (10^-6 cm/sec))				
O=C(C1CC1)N1CC2(CC(c3nnc4n3-c3ccc(Cl)cc3CN(C(=O)C(F)(F)F)C4)C2)C1 [compound 137]	+	< 7	< 7	+	+	< 100					
COc1ccc2c(c1)CN(C)Cc1nnc(C3CC4(C3)CN(c3cnccn3)C4)n1-2 [compound 19]	+++	> 20	< 7	+	+						
O=C(C1COC1)N1Cc2cc(Cl)ccc2-n2c(nnc2C2CC3(C2)CN(c2ccc(F)cn2)C3)C1 [compound 160]	+	< 7	< 7	+	+	< 100					
CCOC(=O)N1Cc2cc(Cl)ccc2-n2c(C3CC4(C3)CN(c3ncc(F)cn3)C4)nnc2C1C (single isomer, unassigned) [Cpd 172A]						< 100	++++ ((++++) denotes >20 (10^-6 cm/sec))	++++ ((++++) denotes >20 (10^-6 cm/sec))			
COC(=O)N1Cc2cc(Cl)ccc2-n2c(nnc2C2CC3(C2)CN(c2cccc(C#N)n2)C3)C1 [compound 91, methyl 8-chloro-1-(2-(6-cyanopyridin-2-yl)-2-azaspiro[3.3]heptan-6-yl)-4H-benzo[f][1,2,4]triazolo[4,3-a][1,4]diazepine-5(6H)-carboxylate]						< 100			> 20	500 to 1000	< 7
CC1c2nnc(C3CC4(C3)CN(c3ncc(F)cn3)C4)n2-c2ccc(Cl)cc2CN1C(=O)OC1CC1 (stereo not drawn) [compound 192]	+++	> 20	> 20	+++	+++	< 100					
CC1c2nnc(C3CC4(C3)CN(c3ncccn3)C4)n2-c2ccc(Cl)cc2CN1C(=O)OC(CF)CF (stereo not drawn) [compound 202]	++++	> 20	< 7	+	+						
CC1c2nnc(C3CC4(C3)CN(c3ccc(F)cn3)C4)n2-c2ccc(Cl)cc2CN1C (stereo not drawn) [compound 179]	+++	> 20	> 20	++	+	100 to 500					
CC1c2nnc(C3CC4(C3)CN(c3ncccn3)C4)n2-c2ccc(Cl)cc2CN1C(=O)OC(CF)CF (single isomer, unassigned) [Cpd 202B]						> 1000	++++ ((++++) denotes >20 (10^-6 cm/sec))	+ ((+) denotes an apparent permeability <7 (10^-6 cm/sec))		> 1000	
COC(=O)N1Cc2cc(Cl)ccc2-n2c(nnc2C2CC3(C2)CN(C(=O)C2CC2)C3)C1 [compound 162]	+	< 7	< 7	+	+	< 100					
CC1c2nnc(C3CC4(C3)CN(c3ncc(F)cn3)C4)n2-c2ccc(Cl)cc2CN1C(=O)OC(CF)CF (single isomer, unassigned) [Cpd 194A]						< 100	++++ ((++++) denotes >20 (10^-6 cm/sec))				
CC(C)OC(=O)N1Cc2cc(Cl)ccc2-n2c(nnc2C2CC3(C2)CN(c2ncncc2F)C3)C1 [compound 185]						< 100			> 20	500 to 1000	> 20
COC(=O)N1Cc2cc(Cl)ccc2-n2c(nnc2C2CC3(C2)CN(c2cccnn2)C3)C1 [compound 75]		10 to 20	< 7	+	+	< 100					
COC(=O)N1Cc2cc(Cl)ccc2-n2c(nnc2C2CC3(C2)CN(c2ncccn2)C3)C1 [compound 95]						< 100			> 20	500 to 1000	< 7
CC(C)OC(=O)N1Cc2cc(Cl)ccc2-n2c(nnc2C2CC3(C2)CN(c2ccc(F)cn2)C3)C1 [compound 111]						< 100			> 20	100 to 500	> 20
